Measurements reported in ChEMBL document CHEMBL1201862, “PubChem BioAssay data set” (2004).
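Briefly, cells in 96-well plates were exposed to five compound concentrations for 48 h, and endpoints were estimated by linear interpolation. GI50 is the concentration that inhibits growth by half.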 Active and inactive are the calls of the source. Rule as the data show it: active = GI50 up to about 1.1 µM and inactive = higher.

Key:
Experiment in all cases: NCI-60 cell line screen, 48 h
TK-10 = tested on: TK-10
COLO 205 = tested on: COLO 205
U-251 = tested on: U-251
SK-MEL-5 = tested on: SK-MEL-5
UACC-257 = tested on: UACC-257
SK-OV-3 = tested on: SK-OV-3
A498 = tested on: A498
SF-268 = tested on: SF-268
KM12 = tested on: KM12
T47D = tested on: T47D
HOP-92 = tested on: HOP-92
SK-MEL-28 = tested on: SK-MEL-28
HL-60 = tested on: HL-60
Malme-3M = tested on: Malme-3M
PC-3 = tested on: PC-3
SF-539 = tested on: SF-539
HCT-15 = tested on: HCT-15
CCRF-CEM = tested on: CCRF-CEM
SN12C = tested on: SN12C
M14 = tested on: M14

Compound	GI50 (TK-10)	GI50 (COLO 205)	GI50 (U-251)	GI50 (SK-MEL-5)	GI50 (UACC-257)	GI50 (SK-OV-3)	GI50 (A498)	GI50 (SF-268)	GI50 (KM12)	GI50 (T47D)	GI50 (HOP-92)	GI50 (SK-MEL-28)	GI50 (HL-60)	GI50 (Malme-3M)	GI50 (PC-3)	GI50 (SF-539)	GI50 (HCT-15) [µM]	GI50 (CCRF-CEM)	GI50 (SN12C)	GI50 (M14)
CC1(C)CCC(=O)NC1CC(=O)CC1NC(=O)CCC1(C)C (stereo not given)	> 100 µM (inactive)	> 100 µM (inactive)	> 100 µM (inactive)	> 100 µM (inactive)	> 100 µM (inactive)	> 100 µM (inactive)	> 100 µM (inactive)	> 100 µM (inactive)	> 100 µM (inactive)	> 100 µM (inactive)	> 100 µM (inactive)	> 100 µM (inactive)	32.7 µM (inactive)	> 100 µM (inactive)	> 100 µM (inactive)	> 100 µM (inactive)	> 100	> 100 µM (inactive)	> 100 µM (inactive)	> 100 µM (inactive)
COc1ccc(-c2cn3c(n2)sc2cc(C)ccc23)cc1	22.1 µM (inactive)	5.51 µM (inactive)	4.13 µM (inactive)	3.65 µM (inactive)	3.9 µM (inactive)	22.1 µM (inactive)	21.3 µM (inactive)	22.8 µM (inactive)	5.05 µM (inactive)	3.33 µM (inactive)	2.86 µM (inactive)	38.3 µM (inactive)	3.45 µM (inactive)	37.8 µM (inactive)	14.8 µM (inactive)	13.6 µM (inactive)	38.5	19.8 µM (inactive)	23.7 µM (inactive)	26.1 µM (inactive)
O=C1/C(=N/O)Cc2c(Br)ccc(Br)c21	48.4 µM (inactive)	–	39.6 µM (inactive)	32.4 µM (inactive)	42.2 µM (inactive)	37.2 µM (inactive)	68.1 µM (inactive)	35.2 µM (inactive)	67.3 µM (inactive)	51.3 µM (inactive)	> 100 µM (inactive)	60.3 µM (inactive)	26.9 µM (inactive)	–	27.8 µM (inactive)	> 100 µM (inactive)	33.7	27.8 µM (inactive)	–	> 100 µM (inactive)
COc1ccc(C2c3cc4c(cc3OC(N3CCOCC3)C2C)OCO4)c(OC)c1 (stereo not given)	7.78 µM (inactive)	9.33 µM (inactive)	4.09 µM (inactive)	2.81 µM (inactive)	6.3 µM (inactive)	4.43 µM (inactive)	4.68 µM (inactive)	6.95 µM (inactive)	4.94 µM (inactive)	5.83 µM (inactive)	3.32 µM (inactive)	8.49 µM (inactive)	2.7 µM (inactive)	5.11 µM (inactive)	7.6 µM (inactive)	3.05 µM (inactive)	4.34	3.5 µM (inactive)	10.7 µM (inactive)	3.96 µM (inactive)
C=C(Cl)C(Cl)(CBr)CCCC(C)(C)Cl (stereo not given)	2.26 µM (inactive)	7.5 µM (inactive)	2.11 µM (inactive)	29.9 µM (inactive)	3.15 µM (inactive)	> 100 µM (inactive)	19.8 µM (inactive)	12.7 µM (inactive)	1.7 µM (inactive)	1.8 µM (inactive)	2.41 µM (inactive)	11.7 µM (inactive)	1.53 µM (inactive)	18 µM (inactive)	3.25 µM (inactive)	2.47 µM (inactive)	26.3	> 33.7 µM (inactive)	60.8 µM (inactive)	> 75.2 µM (inactive)
O=Cc1[nH]c(=O)[nH]c(=O)c1CCl	> 100 µM (inactive)	> 62.7 µM (inactive)	> 61 µM (inactive)	> 82 µM (inactive)	> 100 µM (inactive)	> 100 µM (inactive)	> 100 µM (inactive)	> 59.3 µM (inactive)	> 100 µM (inactive)	> 100 µM (inactive)	> 62.1 µM (inactive)	> 100 µM (inactive)	38 µM (inactive)	> 100 µM (inactive)	> 100 µM (inactive)	> 63.2 µM (inactive)	> 65.8	> 52.7 µM (inactive)	> 100 µM (inactive)	–
COc1cc(/C=C2\C(=O)N(c3ccc(NC(C)=O)cc3)C(c3ccccc3)S2(=O)=O)cc(OC)c1OC (stereo not given)	> 100 µM (inactive)	> 100 µM (inactive)	> 100 µM (inactive)	68.1 µM (inactive)	> 100 µM (inactive)	> 100 µM (inactive)	> 100 µM (inactive)	–	> 100 µM (inactive)	28.6 µM (inactive)	> 100 µM (inactive)	> 100 µM (inactive)	18.3 µM (inactive)	> 100 µM (inactive)	48.4 µM (inactive)	> 100 µM (inactive)	> 100	44.5 µM (inactive)	> 100 µM (inactive)	> 100 µM (inactive)
